For data set [1], the system named is L. reuteri Strain CF48-3A. In words: MIC by broth microdilution. It is filed as cell-based, Lactobacillus reuteri. The following applies: Limosilactobacillus reuteri. Background: Broth dilution looks for growth in wells or tubes with falling amounts of substance.
In data set [2] the test system is Sheep red blood cells. In words: Hemolysis assay. The data set is classed as cell-based. The settings on record: tested at 32 μg/mL, sheep erythrocytes. The procedure, abridged:
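PBS-washed sheep erythrocytes (3% suspension, pH 7.4) were exposed to compound at 32 μg/mL final for 1 h at 37 °C. After centrifugation, supernatant absorbance at 540 nm was read against 1% Triton X-100 (full lysis) and 0.5% DMSO in PBS. Triplicate.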

Data set [3] has as its system HepG2 cells. Kind of data set: In vitro cytotoxicity, MTS assay. The settings on record: for in vitro toxicity compared with niclosamide (in words): 0.125–32 μg/mL. The data set is classed as cell-based, human. The procedure: (§1) Cell lines Hep G2 [HEPG2] (ATCC® HB-8065^TM) and 293T/17 [HEK 293T/17] (ATCC® CRL-11268^TM) were purchased from ATCC and cultured according to manufacturer’s instructions. HEPG2 or HEK 293T/17 cells were cultured in 96-well plates, and incubated at 37 °C in a 5% CO2 humidifying chamber for 24 h. Cells were then treated with test compounds at concentrations ranging from 0.125–32 μg/mL, and an MTS assay was performed at 16-h post-incubation at 37 °C in a 5% CO2 humidifying chamber, using the CellTiter 96 aqueous non-radioactive cell proliferation assay kit (Promega, Madison, WI, USA) per manufacturer’s instructions. MTS assays were performed in duplicate.
Background: Formazan colour is commonly taken as a measure of viable cells.

Data set [4] has as its system HEK 293T/17 cells. In words: In vitro cytotoxicity, MTS assay. The data set is classed as cell-based, human. The settings on record: HEK 293T/17, MTS; for in vitro toxicity compared with niclosamide (in words): 0.125–32 μg/mL. The procedure: as §1
The test system of data set [5] is L. plantarum ATCC 8014. Kind of data set: MIC by broth microdilution. The data set is classed as cell-based. The settings on record: Lactiplantibacillus plantarum.
Data set [6] deals with S. aureus RN4220. Kind of data set: MIC by broth microdilution. The data set is classed as cell-based. The settings on record: Staphylococcus aureus, CAMHB, aerobic, duplicate.
Data set [7] relates to A. baumannii M2. In words: MIC by broth microdilution. The data set is classed as cell-based. The following applies: Acinetobacter baumannii.
Data set [8] concerns C. difficile strain 630 (CD630, ATCC BAA-1382-FZ, ribotype 012). Kind of data set: MIC by broth microdilution. The data set is classed as cell-based, Clostridium difficile.
The conditions of data set [9]: ruminants; cited from earlier work.
Data set [10] concerns C. difficile strain 4118. In words: Serial passage experiments (resistance development). The data set is classed as cell-based, Clostridium difficile. The following applies: after 21 serial passages of CD4118 at 0.5 × MIC. The method, then:
C. difficile strain 4118 serial passages were performed in BHIS containing 0.03% L-cysteine, using the broth microdilution method. The MIC for each compound was first determined according to the procedure detailed above. […] Serial passage experiments were performed in duplicate.

The test system of data set [11] is panel of obligate aerobes, facultative anaerobes and obligate anaerobes. In words: Antibacterial spectrum, MIC against a panel of bacteria. It is filed as cell-based. The settings on record: ratio of MIC values.
Where [12] appears, read: L. reuteri CF48-3A, CAMHB with 5% laked horse blood, ~48 h, duplicate, read-out: MIC.
[13] abbreviates: ATCC8014, L. plantarum ATCC 8014, CAMHB with 5% laked horse blood, ~48 h, duplicate, read-out: MIC.
Setting [14] is: A. baumannii M2, CAMHB, aerobic, duplicate, read-out: MIC.

≈ marks a conversion by molar mass, not a printed value. Where a name gives a salt, the structure may show the parent alone. Read-outs that look alike come from different tables or passages of the source.

One may read the MIC as the lowest concentration found to suppress growth. Turning to `O=C(Nc1ccc(Oc2ccc(Cl)cc2)cc1)c1cc(Cl)cc(Cl)c1O` [Compound 8], the MIC was 16 µg/mL (≈ 39.2 µM) in data set [1] (setting [12]); 16 µg/mL (≈ 39.2 µM) in data set [5] (setting [13]); 0.13 µg/mL (≈ 0.318 µM) in data set [6]; 32 µg/mL (≈ 78.3 µM) in data set [7] (setting [14]); 0.03 µg/mL (≈ 0.0734 µM) in data set [8] (Clostridioides difficile, ATCCBAA1382, BHIS broth, anaerobic, 20–24 h, n = 2). In addition, the “rupture of red blood cells (in words)” value in data set [2] is on record as “did not cause rupture of red blood cells”. For the same molecule, the “in vitro toxicity compared with niclosamide (in words)” value in data set [3] (HepG2, MTS) is given as “lower in vitro toxicities”; in data set [4], “lower in vitro toxicities”. Also, the “MIC C. difficile 630” value in [8] (BHIS broth, anaerobic, 20–24 h, n = 2) was determined as 0.03 µg/mL (≈ 0.0734 µM). Moreover, the “decrease in MIC relative to 5g” value in [8] (CD630 and CD4118 (Table 2)) is 4 fold.
On to `Cc1cc(C(C#N)c2ccc(Cl)cc2)c(Cl)cc1NC(=O)c1cc(I)cc(I)c1O` (stereo not drawn) [Closantel], for which the “excreted unchanged in the feces” value in data set [9] is reported as no more than 90%. In addition, the MIC was 32 µg/mL (≈ 48.3 µM) in data set [1] (setting [12]), greater than 32 µg/mL in data set [5] (setting [13]), 0.25 µg/mL (≈ 0.377 µM) in [6] and greater than 32 µg/mL in data set [7] (setting [14]).
Regarding `Cc1ncc([N+](=O)[O-])n1CCO` [Metronidazole, metronidazole], the “final MIC relative to initial (pre-passage) MIC” value in data set [10] was ~ 2 fold. Further, the MIC in data set [1] (setting [12]), in data set [5] (setting [13]), in data set [6] and in [7] (setting [14]) was greater than 32 µg/mL each time.
Regarding `O=C(Nc1ccc(Oc2ccc(Cl)cc2)c(Cl)c1)c1cc(I)cc(I)c1O` [Rafoxanide, rafoxanide], the “selectivity for C. difficile over Bifidobacterium/Lactobacillus strains and Gram-negative gut commensals (Bacteroides species)” value in [11] was no less than 32 fold. For the same molecule, the MIC was 16 µg/mL (≈ 25.6 µM) in data set [1] (48 h); 32 µg/mL (≈ 51.1 µM) in data set [5] (ATCC8014, 48 h); 0.25 µg/mL (≈ 0.399 µM) in data set [6]; greater than 32 µg/mL in data set [7] (M2). Moreover, the “rupture of red blood cells (in words)” value in data set [2] is listed as “did not cause rupture of red blood cells”. The “no-effect concentration on mammalian cell viability relative to MIC values against C. difficile” value in data set [3] (8 μg/mL, HepG2 and HEK 293T/17) is on record as no less than 64 fold. The “in vitro toxicity compared with niclosamide (in words)” value was “lower in vitro toxicities” in [3] (HepG2, MTS) and “lower in vitro toxicities” in data set [4]. Further, the “concentration with no apparent effect on cell viability” value was no less than 8 µg/mL in data set [3] (HepG2, MTS, 16 h) and no less than 8 µg/mL in data set [4] (16 h).
Regarding `CN[C@H](CC(C)C)C(=O)N[C@H]1C(=O)N[C@@H](CC(N)=O)C(=O)N[C@H]2C(=O)N[C@H]3C(=O)N[C@H](C(=O)N[C@H](C(=O)O)c4cc(O)cc(O)c4-c4cc3ccc4O)[C@H](O)c3ccc(c(Cl)c3)Oc3cc2cc(c3O[C@@H]2O[C@H](CO)[C@@H](O)[C@H](O)[C@H]2O[C@H]2C[C@](C)(N)[C@H](O)[C@H](C)O2)Oc2ccc(cc2Cl)[C@H]1O` [Vancomycin, vancomycin hydrochloride hydrate], the “final MIC relative to initial (pre-passage) MIC” value in data set [10] is ~ 2 fold. The MIC in data set [1] (setting [12]) was greater than 32 µg/mL; in data set [5] (setting [13]), greater than 32 µg/mL; in data set [6] it was 1 µg/mL; in [7] (setting [14]) it was greater than 32 µg/mL.

Source of the values: paper PMC5025651, “Reprofiled anthelmintics abate hypervirulent stationary-phase Clostridium difficile” (Scientific Reports, 2016).
